Consider three molecules from patent publication US12258331B2, “Pyrimidine derivative and preparation process and use thereof” (Guangdong Lewwin Pharmaceutical Research Institute Co., Ltd., priority 2018, dated 2025).

Series [1] is described as follows: Pharmacokinetic properties after intravenous injection and intragastric administration. The format is in vivo, mice. Here is the method: Shanghai Medicilon Bio-pharmaceutical Co., LTD was commissioned to research pharmacokinetic properties of the novel pyrimidine derivatives (R)-14, (R)-5b, and Tepotinib in mice. The specific processes are: An appropriate amount of the compounds (R)-14, (R)-5b and Tepotinib were accurately weighed and dissolved in a solution containing 2% Solutol and 98% 100 mM sodium acetate to obtain a clear dosing solution at a concentration of 2 mg/mL for intravenous administration. An appropriate amount of the compounds (R)-14, (R)-5b were accurately weighed and dissolved in 5% Solutol and 95% saline to obtain a clear dosing solution at a concentration of 5 mg/mL. An appropriate amount of Tepotinib was accurately weighed and dissolved in 5% Solutol, 5% DMSO and 90% saline, for oral administration and injection. Blood was collected from the test […] via jugular vein puncture, about 0.3 mL for per sample, and using heparin sodium as the anticoagulant. The time points for blood sampling were as below (including intravenous injection and oral administration): before administration, 5 min, 15 min, 30 min, 1 h, 2 h, 4 h, 8 h and 24 h post administration. After collection, blood samples were placed on ice, and plasma was separated by centrifugation within 30 minutes (centrifugation conditions: 8000 rpm, 6 minutes, 2-8° C.). The collected plasma was stored at −80° C. before analysis. Plasma samples were all analyzed qualitatively and quantitatively by LC-MS/MS. The dosage and ways for administration were intravenous injection (IV, 2 mg/kg) and intragastric administration (PO, 5 mg/kg) respectively, with the pharmacokinetic data shown in Table 3.

The nature of series [2]: Metabolic stability in rat liver microsomes. Conditions: 37° C. How it is done:
Firstly, a SD rat (200-300 g) was fasted for 12 hours, and then infused rapidly with normal saline. Liver was taken out from the rat, from which liver microsomes were extracted at 0-4° C., ready for use after calibrating the concentration of liver microsomes. At 37° C., liver microsomes were incubated in combination with a certain concentration of compounds and auxiliary reagents for a period of time. The reaction was then quenched with acetonitrile.
For orientation: Liver microsomes are vesicles of endoplasmic reticulum, rich in cytochrome P450 enzymes.

Setting [3] is: Sprague-Dawley, mouse, in vivo, iv, 2 mg/kg.
Where [4] appears, read: Sprague-Dawley, mouse, in vivo, po, 5 mg/kg.

The term Tmax denotes the time from dosing to the highest level. Consider `[2H]C([2H])([2H])C([2H])(c1cccc(-c2ncc(OCC3CCN(C)CC3)cn2)c1)n1nc(-c2cccc(C#N)c2)ccc1=O` (stereo in doubt) [(R)-14], for which, in series [1] (setting [3]), the “AUC0-∞” value stood at 2441.64 ng·h/mL, the CL worked out at 13.652 mL/min/kg and the T1/2 is given as 4.48 h. For the same molecule, in series [1] (setting [4]), the “AUC0-∞” value came out at 6309.37 ng·h/mL and the Tmax is 4 h.
As for `C[C@H](c1cccc(-c2ncc(OCC3CCN(C)CC3)cn2)c1)n1nc(-c2cccc(C#N)c2)ccc1=O` [(R)-5b], in series [1] (setting [3]), the “AUC0-∞” value was 2143.91 ng·h/mL, the CL was 15.548 mL/min/kg and the T1/2 is recorded as 4.23 h. Also, the “AUC0-∞” value in series [1] (setting [4]) amounted to 4580.23 ng·h/mL.
What is called Vz is a proportionality between amount in the body and measured concentration, not a real space. A lower Vz goes with confinement near the circulation. In general, Cmax refers to the highest concentration seen after dosing. `CN1CCC(COc2cnc(-c3cccc(Cn4nc(-c5cccc(C#N)c5)ccc4=O)c3)nc2)CC1` [Tepotinib]: in series [1] (IV 2 mg/kg), the “AUC0-∞” value came out at 562.74 ng·h/mL, the CL amounted to 59.2338 mL/min/kg, the T1/2 was 1.79 h and the Vz came to 9.17868 L/kg. Also, in series [1] (PO 5 mg/kg), the “AUC0-∞” value came to 981.69 ng·h/mL, the Cmax is reported as 211.23 ng/mL and the Tmax stood at 1 h. The “F % (bioavailability)” value in series [1] (PO 5 mg/kg vs IV 2 mg/kg) is 67.77%. Also, in series [2], the “T1/2 (metabolic half-life in liver microsomes)” value is 0.345 h.
